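The compound was tested at five concentrations on cells cultured in 96-well plates, with a 48-hour exposure period. Abbreviation: GI50, concentration required for 50% inhibition of growth. The concentration for full growth arrest is given as TGI.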
Tests used:
Test in all cases: NCI anticancer screen, dose series, 48 h
HOP-92 NSCLC = test system: HOP-92 NSCLC
IGROV1 ovarian = test system: IGROV1 ovarian
KM12 colon = test system: KM12 colon
NCI-H522 lung = test system: NCI-H522 lung
OVCAR-5 ovarian = test system: OVCAR-5 ovarian
RXF 393 renal = test system: RXF 393 renal
SK-MEL-2 melanoma = test system: SK-MEL-2 melanoma
SN12C renal = test system: SN12C renal
SR leukemia = test system: SR leukemia
TK-10 renal = test system: TK-10 renal

Row | SMILES | GI50 (HOP-92 NSCLC) [nM] | TGI (HOP-92 NSCLC) [µM] | GI50 (IGROV1 ovarian) [nM] | TGI (IGROV1 ovarian) [µM] | GI50 (KM12 colon) [nM] | TGI (KM12 colon) [µM] | GI50 (NCI-H522 lung) [nM] | TGI (NCI-H522 lung) [µM] | GI50 (OVCAR-5 ovarian) [µM] | TGI (OVCAR-5 ovarian) [µM] | GI50 (RXF 393 renal) [nM] | TGI (RXF 393 renal) [µM] | GI50 (SK-MEL-2 melanoma) [µM] | TGI (SK-MEL-2 melanoma) [µM] | GI50 (SN12C renal) [nM] | TGI (SN12C renal) [µM] | GI50 (SR leukemia) [nM] | TGI (SR leukemia) [µM] | GI50 (TK-10 renal) [µM] | TGI (TK-10 renal) [µM]
1 | Nc1c(F)cc(-c2nc3cc(F)ccc3[se]2)cc1Br | 526 | 19.4 | 12.7 | 27.4 | 150 | > 100 | 10600 | > 100 | 0.067 | > 33.5 | 2280 | 42.8 | 75 | > 100 | 17700 | > 100 | < 16.2 | > 100 | 0.17 | 0.61
2 | CN(C)CCNC(=O)NC[C@H]1CC[C@@H]2[C@H](O1)c1cc(C(F)(F)F)ccc1N[C@H]2c1ccccc1 | 1250 | 29 | 578 | 40.7 | 296 | 14.6 | 50.6 | 0.303 | 0.609 | 22.6 | 249 | 18.4 | 0.15 | 2.32 | 455 | > 51.7 | 41.1 | 15.1 | 9.78 | 27.5
3 | COc1ccc(OC)c(/C=C/c2nc(SCc3ccccc3)n(-c3ccc(Cl)cc3)n2)c1 | > 100000 | > 100 | 13100 | > 100 | 4990 | > 100 | 3390 | 25 | > 100 | > 100 | 26600 | > 100 | 6.38 | > 100 | 8100 | > 100 | 3530 | > 100 | 30.6 | > 100
4 | COc1ccc2c(c1OC(C)=O)C1=CC(=O)CCC13CCNC3C2 (stereo not given) | – | > 100 | – | > 100 | – | > 100 | – | > 100 | – | > 100 | – | > 100 | – | > 100 | – | > 100 | – | > 100 | – | > 100
5 | COc1ccc2c(c1)C(=O)c1c-2c(Nc2cccc(C(C)=O)c2)nc2ccccc12 | 11100 | 27.7 | 3670 | 18.4 | 27000 | > 100 | 8530 | 35.1 | 11.4 | 24.5 | 9790 | 31.5 | 16.4 | 53.5 | 10300 | 40.1 | 21600 | > 100 | 24.8 | 65
6 | C#Cc1cccc(NC(=O)c2ccc(NC(=O)CCl)cc2)c1 | 11400 | 26.4 | 10600 | 23.7 | 47000 | > 82.5 | 13500 | 35 | 21.4 | > 82.5 | 23900 | > 82.5 | 69.8 | > 82.5 | 18600 | > 82.5 | 7170 | 26.6 | 42.7 | > 82.5
7 | Cc1ccc(S(=O)(=O)Nc2ccc(-c3cc(-c4cccc(F)c4)c(C#N)c(N)n3)cc2)cc1 | 1060 | 2.37 | 1350 | 2.75 | 3100 | 10.2 | 1690 | 4.91 | 1.73 | 3.46 | 1440 | 2.79 | 1.96 | 4.22 | 2200 | 7.11 | 2700 | 10.5 | 1.66 | 3.17
8 | Cc1ccc(S(=O)(=O)N2CCc3ccc(O)c4c3C2Cc2ccc3c(c2-4)OCO3)cc1 (stereo not given) | 417 | 3.51 | 708 | 14.2 | 456 | 3.66 | 393 | 2.08 | 3.19 | 45.8 | 853 | 5.96 | 1.34 | 7.33 | 2320 | > 40 | 352 | 5.98 | 3.48 | 29.2
9 | [CH3][Sn]([CH3])([CH3])[O][N+](=O)[O-] | 3390 | > 10 | 2390 | > 10 | > 10000 | > 10 | 1640 | 3.07 | 6.73 | > 10 | 2190 | 9.73 | 5.1 | > 10 | 1780 | 4.11 | 1480 | 3.33 | > 10 | > 10
10 | CCOC(=O)c1cccnc1C(OC(C)=O)OC(C)=O | – | > 100 | – | > 100 | – | > 100 | – | > 100 | – | > 100 | – | > 100 | – | > 100 | – | > 100 | – | > 100 | – | > 100
11 | CC1=C([Se]CC(OC(=O)[C@@H](CO)NC(=O)OC(C)(C)C)C(=O)NCCCCCC(=O)OCc2ccccc2)C(=O)c2ccccc2C1=O (stereo not given in full) | 1870 | 3.32 | 1790 | 3.37 | 1530 | 2.9 | 2020 | 3.5 | 2.09 | 3.65 | 2700 | 4.18 | 2.26 | 4.08 | 1950 | 3.59 | 1600 | 6.55 | 2.04 | 3.47
12 | C=C1C(=O)O[C@H]2[C@H]1CC/C(COC(=O)NCCCCCCCCNC(=O)OC/C1=C/CC[C@@]3(C)O[C@H]3[C@H]3OC(=O)C(=C)[C@@H]3CC1)=C\CC[C@@]1(C)O[C@@H]21 | 177 | 0.551 | 1010 | 2.61 | 1290 | 3.11 | 186 | 0.407 | 0.269 | 0.912 | 162 | 0.322 | 0.601 | 2.8 | 264 | 0.849 | 317 | 1.51 | 0.284 | 0.855
13 | COc1ccc(N(C)c2nc(Cl)nc3cnn(C)c23)cc1 | < 10 | 7.95 | < 18.9 | > 100 | < 10 | > 100 | < 10 | – | 0.0379 | > 100 | < 10 | > 100 | < 0.01 | > 100 | < 20.3 | > 100 | < 10 | > 100 | > 68.6 | > 100
14 | CN(C)CCOC(=O)Nc1nc2ccc(Sc3ccccc3)cc2[nH]1 | 1330 | 6.73 | 6320 | 27.6 | 3510 | 19.7 | 2580 | 10.8 | 4.22 | 21.1 | 1850 | 6.6 | 5.55 | 22.2 | 5230 | 27.5 | 921 | 19.4 | 11 | 25.5
15 | COc1cc2c(cc1C)NC(=O)/C2=C\c1c[nH]c2ccccc12 | 10200 | 29.9 | 4440 | 33.6 | 417 | 21.1 | 12200 | 28.9 | 13.5 | 42.7 | 7820 | 47.6 | 4.04 | 25 | 11600 | 27.7 | 8910 | 42.6 | 14.1 | 46.5
16 | CCn1ccc(NS(=O)(=O)c2ccc(N)cc2)nc1=O | > 100000 | > 100 | > 100000 | > 100 | > 100000 | > 100 | > 100000 | > 100 | > 100 | > 100 | > 100000 | > 100 | > 100 | > 100 | > 100000 | > 100 | > 100000 | > 100 | > 100 | > 100
17 | Nc1ccc(Sc2c3ccccc3nc3ccccc23)cc1 | – | > 38 | – | 37.6 | – | 40.4 | – | 16 | – | 52 | – | 40.4 | – | 34.1 | – | 36.1 | – | 32.4 | – | 34.2
18 | Cc1cc(Cl)cc(Cc2cc(Cl)cc(C)c2O)c1O | 397 | 2.83 | 5180 | 29.5 | 2850 | 10.2 | 1760 | 6.65 | 3.35 | 12.3 | 2290 | 6.91 | 2.6 | 5.73 | 2270 | 9.7 | 2580 | 10.8 | 3.97 | 12
19 | O=C(O[C@H]1CCN2C[C@H]3C[C@H](CN4C(=O)CCC[C@H]34)[C@@H]2C1)c1ccc(O)cc1 | – | > 100 | – | > 100 | – | > 100 | – | > 100 | – | > 100 | – | > 100 | – | > 100 | – | > 100 | – | > 100 | – | > 100
20 | O=C(/C=C/OC(=O)c1cccc(Cl)c1)c1ccc(Cl)cc1 | 33500 | > 100 | > 46800 | > 100 | > 74600 | > 100 | > 93300 | > 100 | > 100 | > 100 | > 100000 | > 100 | > 73.1 | > 100 | 28500 | > 100 | 22900 | > 92 | 32.7 | > 100
21 | Fc1ccc(Nc2nc3ccccc3c3occc23)cc1 | 5800 | 19.4 | 2620 | 35.1 | 1900 | 6.23 | 13700 | 27.8 | 10.1 | 21.8 | 12600 | 31.5 | 11.9 | 27.6 | 12900 | 27.2 | 2240 | 16.4 | 2.06 | 6.67
22 | Cc1cc(Cl)ccc1NC(=O)C(=O)C(C(=O)c1ccccc1)C1OC(=O)c2ccccc21 (stereo not given) | – | > 100 | – | > 100 | – | > 100 | – | > 100 | – | > 100 | – | > 100 | – | > 100 | – | > 100 | – | > 100 | – | > 100
23 | CCc1cccc(C)c1NC(=S)NC(=O)c1ccccc1C(=O)NC(=S)Nc1c(C)cccc1CC | – | 65.4 | – | > 100 | – | > 100 | – | 35.2 | – | > 100 | – | > 100 | – | > 100 | – | > 100 | – | > 100 | – | > 100
24 | O=C1C2C3C=CC(C2C(=O)N1CN1CCSCC1)C1C2C(=O)N(CN4CCSCC4)C(=O)C2C31 (stereo not given) | – | > 100 | – | > 100 | – | > 100 | 82300 | > 100 | – | > 100 | – | > 100 | – | > 100 | – | > 100 | – | > 100 | – | > 100
25 | CN1CCN(Cc2ccc(NC(=O)c3cncc(C#Cc4cnc(N)c5cnccc45)c3)cc2C(F)(F)F)CC1 | 72.5 | 0.287 | 141 | 0.649 | 16.9 | 5.53 | 226 | 9.45 | 0.162 | 4.39 | 147 | 0.565 | 0.108 | 0.283 | 167 | 5.86 | 229 | 2.97 | 0.436 | 6.73
26 | FC(F)(F)c1cc(Nc2ccc3cc(OCCCN4CCOCC4)ccc3n2)ccc1Cl | 1150 | 2.97 | 2620 | 7.49 | 1920 | 4.37 | 2040 | 3.82 | 2.21 | 5.84 | 1390 | 3.22 | 1.99 | 3.88 | 2960 | 12.9 | 1400 | 4.73 | 2.64 | 5.86
27 | Cc1ccc2nc(NC(=O)/C(=N\NC(=S)NN)C3C(=O)NC(=S)NC3=O)sc2c1 | – | > 100 | – | > 100 | – | > 100 | – | > 100 | – | > 100 | – | > 100 | – | > 100 | – | > 100 | – | > 100 | – | > 100
